Patent publication US20160331798A1, “NATURAL PRODUCT INHIBITORS OF 3DG” (Dynamis Pharmaceuticals, Inc., priority 2008, published 2016)
Counter-ions that a name gives are not always drawn.

Legend:
[1] = animal models; cited from earlier work
[2] = 3DG inactivation assay (3DG binding assay); conditions: for 3DG inactivating activity: summary of Table 3
Procedure: The following assay was used to determine inactivation of 3DG by various natural products and chemicals.
• 1. Dilute the samples with Reagent 1 to a volume of 1.9 ml and add 100 uL Reagent 6 to a total of 2 mL. • 2. Take 600 μL from each solution before incubation (as 0 day sample) • 3. Let sit for 24 hours and 72 hours at 37° and remove 600 μL for samples on day 1 and day 3) • 4.

[3] = in vivo; cited from earlier work

N=C(N)NN [Aminoguanidine]
AGEs-associated retinal, neural, arterial, and renal pathologies [1]: reduces

N=C(N)NCCC[C@H](N)C(=O)O [Arginine]
3DG Conc ([2]; 2 mM, 1 day, 37°): 15.71 µM
3DG Conc ([2]; 2 mM, 3 days, 37°): 13.14 µM
3DG Conc ([2]; 6 mM, 1 day, 37°): 13.66 µM
3DG Conc ([2]; 6 mM, 3 days, 37°): 8.50 µM
3DG Conc ([2]; 12 mM, 1 day, 37°): 12.24 µM
3DG Conc ([2]; 12 mM, 3 days, 37°): 4.98 µM
3DG inactivating activity [2]: most amount of 3DG inactivating activity

O=C1O[C@H]([C@@H](O)CO)C(O)=C1O [Ascorbic Acid]
3DG Conc ([2]; 5 mM, 1 day, 37°): 13.75 µM
3DG Conc ([2]; 5 mM, 3 days, 37°): 11.86 µM
3DG Conc ([2]; 15 mM, 1 day, 37°): 13.99 µM
3DG Conc ([2]; 15 mM, 3 days, 37°): 10.18 µM
3DG Conc ([2]; 30 mM, 1 day, 37°): 17.26 µM
3DG Conc ([2]; 30 mM, 3 days, 37°): 12.64 µM

CC(C)(CO)[C@@H](O)C(=O)NCCC(=O)[O-].CC(C)(CO)[C@@H](O)C(=O)NCCC(=O)[O-].[Ca+2] [Calcium Panthenate]
3DG Conc ([2]; 2.5 mM, 1 day, 37°): 17.27 µM
3DG Conc ([2]; 2.5 mM, 3 days, 37°): 16.18 µM
3DG Conc ([2]; 5 mM, 0 day): 21.06 µM
3DG Conc ([2]; 5 mM, 1 day, 37°): 18.13 µM
3DG Conc ([2]; 5 mM, 3 days, 37°): 17.96 µM
3DG Conc ([2]; 7.5 mM, 1 day, 37°): 16.92 µM
3DG Conc ([2]; 7.5 mM, 3 days, 37°): 15.37 µM
3DG Conc ([2]; 12.5 mM, 1 day, 37°): 18.58 µM
3DG Conc ([2]; 12.5 mM, 3 days, 37°): 14.57 µM
3DG Conc ([2]; 15 mM, 0 day): 22.86 µM
3DG Conc ([2]; 15 mM, 1 day, 37°): 18.84 µM
3DG Conc ([2]; 15 mM, 3 days, 37°): 16.95 µM
3DG Conc ([2]; 30 mM, 0 day): 22.09 µM
3DG Conc ([2]; 30 mM, 1 day, 37°): 19.56 µM
3DG Conc ([2]; 30 mM, 3 days, 37°): 19.17 µM

NCCC(=O)N[C@@H](Cc1cnc[nH]1)C(=O)O [Carnosine]
3DG Conc ([2]; 2 mM, 1 day, 37°): 16.85 µM
3DG Conc ([2]; 2 mM, 3 days, 37°): 15.58 µM
3DG Conc ([2]; 5 mM, 1 day, 37°): 16.18 µM
3DG Conc ([2]; 5 mM, 3 days, 37°): 14.58 µM
3DG Conc ([2]; 6 mM, 1 day, 37°): 15.96 µM
3DG Conc ([2]; 6 mM, 3 days, 37°): 16.93 µM
3DG Conc ([2]; 12 mM, 1 day, 37°): 15.05 µM
3DG Conc ([2]; 12 mM, 3 days, 37°): 12.37 µM
3DG Conc ([2]; 15 mM, 1 day, 37°): 16.90 µM
3DG Conc ([2]; 15 mM, 3 days, 37°): 15.39 µM
3DG Conc ([2]; 30 mM, 1 day, 37°): 18.45 µM
3DG Conc ([2]; 30 mM, 3 days, 37°): 13.97 µM

Cl.N[C@H]1C(O)O[C@H](CO)[C@@H](O)[C@@H]1O (stereo partly drawn) [Glucosamine HCl, D-Glucosamine HCl]
3DG Conc ([2]; 5 mM, 0 day): 25.15 µM
3DG Conc ([2]; 5 mM, 1 day, 37°): 43.42 µM
3DG Conc ([2]; 5 mM, 3 days, 37°): 82.33 µM
3DG Conc ([2]; 15 mM, 0 day): 36.00 µM
3DG Conc ([2]; 15 mM, 1 day, 37°): 122.14 µM
3DG Conc ([2]; 15 mM, 3 days, 37°): 181.09 µM
3DG Conc ([2]; 30 mM, 0 day): 56.87 µM
3DG Conc ([2]; 30 mM, 1 day, 37°): 183.92 µM
3DG Conc ([2]; 30 mM, 3 days, 37°): 173.60 µM

CNC[C@H](O)[C@@H](O)[C@H](O)[C@H](O)CO.Cl [Meglumine-HCl, reference compound]
3DG Conc ([2]; 5 mM, 1 day, 37°): 17.51 µM
3DG Conc ([2]; 5 mM, 3 days, 37°): 16.27 µM
3DG Conc ([2]; 15 mM, 1 day, 37°): 16.58 µM
3DG Conc ([2]; 15 mM, 3 days, 37°): 17.52 µM
3DG Conc ([2]; 30 mM, 1 day, 37°): 15.39 µM
3DG Conc ([2]; 30 mM, 3 days, 37°): 15.87 µM

CC(C)(CO)[C@@H](O)C(=O)NCCCO [Panthenol]
3DG Conc ([2]; 5 mM, 0 day): 19.54 µM
3DG Conc ([2]; 5 mM, 1 day, 37°): 18.10 µM
3DG Conc ([2]; 5 mM, 3 days, 37°): 19.51 µM
3DG Conc ([2]; 15 mM, 0 day): 18.08 µM
3DG Conc ([2]; 15 mM, 1 day, 37°): 17.74 µM
3DG Conc ([2]; 15 mM, 3 days, 37°): 16.84 µM
3DG Conc ([2]; 30 mM, 0 day): 18.91 µM
3DG Conc ([2]; 30 mM, 1 day, 37°): 17.67 µM
3DG Conc ([2]; 30 mM, 3 days, 37°): 17.63 µM

Cc1ncc(COP(=O)(O)O)c(C=O)c1O [Pyridoxal-5′-Phosphate]
3DG Conc ([2]; 2 mM, 1 day, 37°): 13.71 µM
3DG Conc ([2]; 2 mM, 3 days, 37°): 12.29 µM
3DG Conc ([2]; 6 mM, 1 day, 37°): 13.00 µM
3DG Conc ([2]; 6 mM, 3 days, 37°): 8.12 µM
3DG Conc ([2]; 12 mM, 1 day, 37°): 12.20 µM
3DG Conc ([2]; 12 mM, 3 days, 37°): 7.14 µM
3DG inactivating activity [2]: most amount of 3DG inactivating activity

Cc1ncc(CO)c(C=O)c1O.Cl [Pyridoxal-HCl]
3DG Conc ([2]; 2 mM, 0 day): 16.46 µM
3DG Conc ([2]; 2 mM, 1 day, 37°): 12.16 µM
3DG Conc ([2]; 2 mM, 3 days, 37°): 16.19 µM
3DG Conc ([2]; 6 mM, 0 day): 16.02 µM
3DG Conc ([2]; 6 mM, 1 day, 37°): 14.57 µM
3DG Conc ([2]; 6 mM, 3 days, 37°): 15.72 µM
3DG Conc ([2]; 12 mM, 0 day): 14.80 µM
3DG Conc ([2]; 12 mM, 1 day, 37°): 14.79 µM
3DG Conc ([2]; 12 mM, 3 days, 37°): 14.99 µM

Cc1ncc(CO)c(CO)c1O [Pyridoxine]
3DG Conc ([2]; 2 mM, 0 day): 16.32 µM
3DG Conc ([2]; 2 mM, 1 day, 37°): 14.82 µM
3DG Conc ([2]; 2 mM, 3 days, 37°): 16.35 µM
3DG Conc ([2]; 6 mM, 0 day): 16.13 µM
3DG Conc ([2]; 6 mM, 1 day, 37°): 16.67 µM
3DG Conc ([2]; 6 mM, 3 days, 37°): 15.83 µM
3DG Conc ([2]; 12 mM, 0 day): 15.90 µM
3DG Conc ([2]; 12 mM, 1 day, 37°): 15.85 µM
3DG Conc ([2]; 12 mM, 3 days, 37°): 15.44 µM

Cc1ncc(C[n+]2csc(CCO)c2C)c(N)n1 [Thiamine-HCl]
3DG Conc ([2]; 5 mM, 1 day, 37°): 16.27 µM
3DG Conc ([2]; 5 mM, 3 days, 37°): 14.49 µM
3DG Conc ([2]; 15 mM, 1 day, 37°): 14.83 µM
3DG Conc ([2]; 15 mM, 3 days, 37°): 14.81 µM
3DG Conc ([2]; 30 mM, 1 day, 37°): 17.76 µM
3DG Conc ([2]; 30 mM, 3 days, 37°): 14.89 µM

NC[C@H]1CC[C@H](C(=O)O)CC1 [Tranexamic Acid, reference compound]
3DG Conc ([2]; 5 mM, 0 day): 20.96 µM
3DG Conc ([2]; 5 mM, 1 day, 37°): 24.16 µM
3DG Conc ([2]; 5 mM, 3 days, 37°): 22.02 µM
3DG Conc ([2]; 15 mM, 0 day): 18.06 µM
3DG Conc ([2]; 15 mM, 1 day, 37°): 18.98 µM
3DG Conc ([2]; 15 mM, 3 days, 37°): 19.21 µM
3DG Conc ([2]; 30 mM, 0 day): 19.25 µM
3DG Conc ([2]; 30 mM, 1 day, 37°): 17.42 µM
3DG Conc ([2]; 30 mM, 3 days, 37°): 16.87 µM

N[C@@H](CCCCNC[C@H](O)[C@@H](O)[C@@H](O)[C@H](O)CO)C(=O)O [galactitollysine]
urinary or plasma 3DG [3]: reduced

N[C@@H](CCCCNC[C@@H](O)[C@@H](O)[C@H](O)[C@H](O)CO)C(=O)O [mannitollysine]
urinary or plasma 3DG [3]: reduced

N[C@@H](CCCCNC[C@H](O)[C@@H](O)[C@H](O)[C@H](O)CO)C(=O)O [sorbitollysine]
urinary or plasma 3DG [3]: reduced

Thiamine nitrate
3DG Conc ([2]; 5 mM, 1 day, 37°): 15.87 µM
3DG Conc ([2]; 5 mM, 3 days, 37°): 16.45 µM
3DG Conc ([2]; 15 mM, 1 day, 37°): 18.90 µM
3DG Conc ([2]; 15 mM, 3 days, 37°): 14.19 µM
3DG Conc ([2]; 30 mM, 1 day, 37°): 17.20 µM
3DG Conc ([2]; 30 mM, 3 days, 37°): 14.85 µM
